This note sets out measurements from patent US20230271949A1, “GLP-1R MODULATING COMPOUNDS” (ASCLETIS BIOSCIENCE CO., LTD., priority 2022, published 2023).

As usually defined, the EC50 is the concentration at which the effect is half-maximal.

This assay deals with GLP-1R (Homo sapiens, UniProt P43220). The assay can be described thus: GLP-1R agonist cAMP stimulation assay (HTRF cAMP). It counts as cell-based. The conditions noted are these: HEK293 cell line expressing GLP-1 target; HTRF cAMP agonist mode, 30 min at RT. As to the method: cAMP Detection Kit, Cisbio (Cat #62AM4PEJ)
GLP-1R, sequence (P43220 24-463): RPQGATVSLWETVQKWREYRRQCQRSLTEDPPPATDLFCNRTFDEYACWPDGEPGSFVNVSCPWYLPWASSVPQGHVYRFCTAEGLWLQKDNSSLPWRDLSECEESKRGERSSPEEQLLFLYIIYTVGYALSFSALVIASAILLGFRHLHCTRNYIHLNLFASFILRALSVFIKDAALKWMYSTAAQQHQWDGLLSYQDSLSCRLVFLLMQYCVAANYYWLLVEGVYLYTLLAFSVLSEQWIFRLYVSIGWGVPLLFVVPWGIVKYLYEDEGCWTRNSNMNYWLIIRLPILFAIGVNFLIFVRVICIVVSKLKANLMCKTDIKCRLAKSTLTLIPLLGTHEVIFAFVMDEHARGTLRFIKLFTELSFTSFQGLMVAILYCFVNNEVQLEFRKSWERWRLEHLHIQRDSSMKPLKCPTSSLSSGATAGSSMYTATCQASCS
The cell line was constructed by WuXi.
2. Methods • a) The compound source plate preparation: • The reference 7-37 was diluted from 500 nM, 4-fold, 10 points in DMSO using Bravo. The compounds were diluted from […], 3-fold, 10 points in DMSO using Bravo. • b) Transfer of compounds: • 1) Use Echo transfer 100 nL cpd to the OptiPlate-384 plate. • 2) Spin the plates at 1000 rpm for 5 sec. • c) Cell suspension preparation: • 1) Thaw 1 vial of GLP-1 cells rapidly in 37° C. water bath. • 2) Transfer cell suspension into 10 ml of HBSS in a 15 ml conical tube. • 3) Centrifuge cells at 1000 rpm for 5 min at room temperature to pellet cells • 4) Gently aspirate supernatant being careful not to aspirate cells. • 5) Flick pellet to loose cells and re-suspend the cell pellet in 10 ml HBSS. Use a sterile pipette to pipette up and down to dislodge clumps. • 6) Count cells for concentration and to determine cell viability on Vi-cell. • 7) Re-suspend the GLP-1 cells in assay buffer at a concentration of 1.0×E5/mL cells. • 8) Transfer 10 μL GLP-1 cells to OptiPlate-384 plate. • d) HTRF cAMP Assay for agonist: • 1) Incubate the plate at RT for 30 min before adding the detection reagent. • 2) Add 10 μL each of detection reagent using Electric Multiple Channel Pipette. • 3) Cover the 384 plate with TopSeal-A film and incubate for 60 minutes at room temperature. • Remove the TopSeal-A, read on EnVision.
Create a new log (Inhibitor) vs response—Variable slope mode in Prism5.0 software, substitute the standard curve concentration (x) and its corresponding 665/615 data (y) into the model, convert the standard curve concentration (abscissa) by x=log(x), and make the standard curve through the converted xy.
Transform the data of 665/615 in the whole plate into a column of data, substitute it into y in the table of standard curve concentration (x) and 665/615 data (y), copy the x (interpolatedx) corresponding to automatic conversion by the software into a table, convert it into cAMP level by the formula x=10^(x), and reset the data into 384 distribution.
% Activity=(cAMP level−LC)/(HC−LC)*100% • Z factor: 1-3*(STD_HC+[…])/(HC-LC) • Assay Window: HC/LC • LC: The average cAMP level of adding DMSO wells • HC: The average cAMP level of adding the top concentration of reference compounds wells.
Create a new […] in Prism5.0 software, substitute the sample concentration (x) and its corresponding % Activity data (y) into the model, convert the standard curve concentration (abscissa) to x=log(x), and make the sample curve through the converted xy.
For `Cc1nn(C)c2ccc(NC(=O)c3ccc4c(c3)nc(CN3CCC(c5cccc(OCc6ccc(Cl)cc6F)n5)CC3)n4C[C@@H]3CCO3)cc12` [Compound 109], a half-maximal effect (EC50) was put at 47 nM.

`Cc1n[nH]c2c(C(F)F)cc(NC(=O)c3ccc4c(c3)nc(CN3CC=C(c5cccc(OCc6ccc(Cl)cc6F)n5)CC3)n4C[C@@H]3CCO3)cc12` [Compound 172] showed a half-maximal effective concentration (EC50) of 1.63 nM. To `Cc1n[nH]c2cnc(NC(=O)c3ccc4c(c3)nc(CN3CCC(c5cccc(OCc6ccc(Cl)cc6F)n5)CC3)n4C[C@@H]3CCO3)nc12` [Compound 195] belongs 2.31 nM; to `Cc1cc(NC(=O)c2ccc3c(c2)nc(CN2CCC(c4cccc5c4OC(C)(c4ccc(Cl)cc4F)O5)CC2)n3C[C@@H]2CCO2)cc2c1NC(=O)C21CC1` (stereo partly drawn) [Compound 337], 0.45 nM. On to `O=C(Nc1ccc2nc(CN3CC=C(c4cccc(OCc5ccc(Cl)cc5F)n4)CC3)n(CC3CCO3)c2c1)c1ccc2[nH]nc(Cl)c2c1` (stereo not drawn) [Compound 284], for which the EC50 was determined as 9.85 nM. Consider `Cc1n[nH]c2c(C)cc(C(=O)Nc3ccc4c(c3)nc(Cc3ccc(-c5cccc6c5OC(C)(c5ccc(C#N)cc5F)O6)cc3F)n4CC3CCO3)cc12` (stereo not drawn) [Compound 317], for which the EC50 turned out to be 0.32 nM. In the case of `Cc1n[nH]c2ccc(NC(=O)c3ccc4c(c3)nc(CN3CC=C(c5cccc(OCc6ccc(Cl)cc6F)n5)CC3)n4C[C@@H]3CCO3)nc12` [Compound 191] it was 3.69 nM. As to `Cc1n[nH]c2c(F)cc(C(=O)Nc3ccc4nc(CN5CC=C(c6cccc(OCc7ccc(Cl)cc7F)n6)CC5)n(CC5CCO5)c4c3)cc12` (stereo not drawn) [Compound 277], it took 0.76 nM to reach a half-maximal effect (EC50).

Regarding `Cc1cc2c(C#N)ccc(COc3cccc(C4=CCN(Cc5nc6cc(NC(=O)c7ccc8[nH]nc(C(F)(F)F)c8c7)ccc6n5C[C@@H]5CCO5)CC4)n3)c2o1` [Compound 359], it took 1.62 nM to reach a half-maximal effect (EC50). With `COCCn1c(CN2CCC(c3cccc(OCc4ccc(Cl)cc4F)n3)CC2)nc2cc(C(=O)N[C@@H]3CCc4nc(N)sc4C3)ccc21` [Compound 14], the EC50 came to 447 nM. To `O=C(Nc1ccc2[nH]nc(C3CC3)c2c1)c1ccc2c(c1)nc(CN1CC=C(c3cccc(OCc4ccc(Cl)cc4F)n3)CC1)n2C[C@@H]1CCO1` [Compound 162] belongs 1.23 nM.

In turn, `Cc1cc(C(=O)Nc2ccc3c(c2)nc(C2CC24CCN(c2cccc(OCc5ccc(Cl)cc5F)n2)CC4)n3C[C@@H]2CCO2)cc2[nH]c(=O)[nH]c12` (stereo partly drawn) [Compound 249] returned an EC50 of 0.44 nM. Compound `CC(C)c1n[nH]c2ccc(C(=O)Nc3ccc4c(c3)nc(CN3CC=C(c5cccc(OCc6ccc(Cl)cc6F)n5)CC3)n4C[C@@H]3CCO3)cc12` [Compound 223] displayed a 50% effective concentration (EC50) of 0.95 nM. To `CC(=O)c1n[nH]c2ccc(C(=O)Nc3ccc4c(c3)nc(CN3CC=C(c5cccc(OCc6ccc(Cl)cc6F)n5)CC3)n4C[C@@H]3CCO3)cc12` [Compound 395] belongs 10.3 nM. In the case of `O=C(Nc1ccc2[nH]nc(C(F)(F)F)c2c1)c1ccc2c(c1)nc(CN1CC=C(c3cccc(OCc4ccc(Cl)cc4F)n3)CC1)n2C[C@@H]1CCO1` [Compound 161] it was 0.87 nM. In the case of `Cc1n[nH]c2ncc(C(=O)Nc3ccc4c(c3)nc(CN3CC=C(c5cccc(OCc6ccc(Cl)cc6F)n5)CC3)n4C[C@@H]3CCO3)nc12` [Compound 238] it was 11.9 nM. `Cc1cc(NC(=O)c2ccc3c(c2)nc(CN2CC=C(c4cccc5c4OC(C)(c4ccc(Cl)cc4F)O5)CC2)n3CC2CCO2)cc2c(C(F)(F)F)n[nH]c12` (stereo not drawn) [Compound 296] registered a concentration for a half-maximal effect (EC50) of 1.92 nM. In the case of `O=C(Nc1ccc2c(c1)nc(C(F)(F)N1CC=C(c3cccc(OCc4ccc(Cl)cc4F)n3)CC1)n2C[C@@H]1CCO1)c1ccc2[nH]nc(C3CC3)c2c1` [Compound 258] it was 31.8 nM; in that of `Cc1n[nH]c2c(C(F)(F)F)cc(C(=O)Nc3ccc4c(c3)nc(C3CC35CCN(c3cccc(OCc6ccc(Cl)cc6F)n3)CC5)n4C[C@@H]3CCO3)cc12` (stereo partly drawn) [Compound 253], 2.01 nM. `O=C(Nc1ccc2c(c1)nc(CN1CC=C(c3cccc(OCc4ccc(Cl)cc4F)n3)CC1)n2C[C@@H]1CCO1)c1ccc2[nH]ncc2c1` [Compound 204] registered an EC50 of 0.63 nM. On to `Cc1n[nH]c2c(Cl)cc(NC(=O)c3ccc4c(c3)nc(CN3CC=C(c5cccc6c5O[C@@](C)(c5ccc(Cl)cc5F)O6)C[C@@H]3C)n4CC3CCO3)cc12` (stereo partly drawn) [Compound 329], for which the concentration giving a half-maximal response (EC50) came to 1.66 nM.

The compound `COC(=O)C1CC(N(C)C)CN1C(=O)[C@H](C)NC(=O)c1ccc2c(c1)nc(CN1CCC(c3cccc(OCc4ccc(Cl)cc4F)n3)CC1)n2C[C@@H]1CCO1` (stereo partly drawn) [Compound 74] showed a concentration giving a half-maximal response (EC50) above 10000 nM. Turning to `O=C(NCC(=O)N1CCC[C@H]1C(=O)O)c1ccc2c(c1)nc(CN1CCC(c3cccc(OCc4ccc(Cl)cc4F)n3)CC1)n2C[C@@H]1CCO1` [Compound 60], the midpoint of the response, the EC50, lay at 22.3 nM.

`O=C(NCc1ccc2[nH][nH]c(=O)c2c1)c1ccc2c(c1)nc(CN1CCC(c3cccc(OCc4ccc(Cl)cc4F)n3)CC1)n2C[C@@H]1CCO1` [Compound 76]: the concentration for a half-maximal effect (EC50) worked out at 9.04 nM. In the case of `O=C(Nc1cc(C(F)(F)F)c2c(c1)C1(CC1)C(=O)N2)c1ccc2c(c1)nc(CN1CC=C(c3cccc(OCc4ccc(Cl)cc4F)n3)CC1)n2C[C@@H]1CCO1` [Compound 157] it was 0.77 nM; in that of `Cc1n[nH]c2ccc(NC(=O)c3ccc4c(c3)nc(CN3CCC(c5cccc(OCc6ccc(C#N)c7ccccc67)n5)CC3)n4C[C@@H]3CCO3)cc12` [Compound 378], 1.03 nM. Take `Cc1n[nH]c2c(C)cc(NC(=O)c3ccc4c(c3)nc(CN3CCC(c5cccc(OCc6cc(F)c(C#N)s6)n5)CC3)n4C[C@@H]3CCO3)cc12` [Compound 376]: the EC50 worked out at 0.98 nM.

In turn, `C[C@H](NC(=O)c1ccc2c(c1)nc(CN1CC=C(c3cccc(OCc4ccc(Cl)cc4F)n3)CC1)n2C[C@@H]1CCO1)C(=O)N1CC(F)(F)C[C@H]1C(=O)O` [Compound 73] had an EC50 of 0.52 nM. In the case of `Cc1n[nH]c2ccc(C(=O)Nc3ccc4c(c3)nc(CN3CC=C(c5cccc(OCc6ccc(Cl)cc6F)n5)CC3)n4C[C@@H]3CCO3)c(F)c12` [Compound 224] it was 3.29 nM; in that of `COCCn1c(CN2CCC(c3cccc(OCc4ccc(Cl)cc4F)n3)CC2)nc2cc(C(=O)NCc3ccc(O)c(C(=O)OC)c3)ccc21` [Compound 36], above 10000 nM. Compound `Cc1n[nH]c2ccc(C(=O)Nc3ccc4c(c3)nc(CN3CC=C(c5cccc6c5OC(C)(c5ccc(Cl)cc5F)O6)CC3)n4CC3CCO3)cc12` (stereo not drawn) [Compound 306] showed an EC50 of 0.56 nM.

For the compound `Cc1n[nH]c2c(Cl)cc(NC(=O)c3ccc4c(c3)nc(CN3CC=C(c5cccc6c5OC(C)(c5ccc(Cl)cc5F)O6)C[C@@H]3C)n4CC3CCO3)cc12` (stereo partly drawn) [Compound 302], a half-maximal effect (EC50) was put at 1.07 nM. In the case of `COCCn1c(CN2CCC(c3cccc(OCc4ccc(Cl)cc4F)n3)CC2)nc2cc(C(=O)NCc3ccc4[nH]c(=O)[nH]c4c3)ccc21` [Compound 38] it was 17.7 nM.

In turn, `Cc1n[nH]c2c(C)cc(C(=O)Nc3ccc4c(c3)nc(CN3CC=C(c5cccc(OCc6ccc(C#N)c7cc(Cl)oc67)n5)CC3)n4C[C@@H]3CCO3)cc12` [Compound 357] had an EC50 of 0.41 nM. `Cc1n[nH]c2ccc(NC(=O)c3ccc4c(c3)nc(CN3CCC(c5cccc6c5OC(C)(c5ccc(Cl)cc5F)O6)CC3)n4CC3CCO3)cc12` (stereo not drawn) [Compound 336] had a half-maximal effective concentration (EC50) of 1.03 nM. In the case of `COCCn1c(CN2CCC(c3cccc(OCc4ccc(Cl)cc4F)n3)CC2)nc2cc(C(=O)NCCc3ccccc3O)ccc21` [Compound 18], the half-maximal effective concentration (EC50) came out at 411 nM.
